Reference: ChEMBL document CHEMBL4818987, “Recent advances of podophyllotoxin/epipodophyllotoxin hybrids in anticancer activity, mode of action, and structure-activity relationship: An update (2010-2020)” (Eur J Med Chem, 2020)

Experiments:
MGC-803 [1] = test: Antiproliferative activity against human MGC-803 cells incubated for 48 hrs by MTT assay; assay type: functional, cell-based; details: MGC-803, 48 h
SK-OV-3 [2] = test: Antiproliferative activity against human SKOV3 cells incubated for 48 hrs by MTT assay; assay type: functional, cell-based; details: SK-OV-3, 48 h
BGC-823 [3] = test: Antiproliferative activity against human BGC-823 cells incubated for 48 hrs by MTT assay; assay type: functional, cell-based; details: BGC-823, 48 h
K562/A02 [4] = test: Antiproliferative activity against human K562/A02 cells incubated for 48 hrs by MTT assay; assay type: functional, cell-based; details: K562/A02, 48 h
HL-60 [5] = test: Antiproliferative activity against human HL-60 cells incubated for 48 hrs by MTT assay; assay type: functional, cell-based; details: HL-60, 48 h
A549 [6] = test: Antiproliferative activity against human A549 cells incubated for 48 hrs by MTT assay; assay type: functional, cell-based; details: A549, 48 h
MCF7 [7] = test: Potency index, ratio of cisplatin IC50 to test compound IC50 for antiproliferative activity against human MCF7 cells; assay type: functional
MCF7 [8] = test: Antiproliferative activity against human MCF7 cells incubated for 48 hrs by MTT assay; assay type: functional, cell-based; details: MCF7, 48 h
A549 [9] = test: Potency index, ratio of cisplatin IC50 to test compound IC50 for antiproliferative activity against human A549 cells; assay type: functional
SMMC-7721 [10] = test: Antiproliferative activity against human SMMC-7721 cells incubated for 48 hrs by MTT assay; assay type: functional, cell-based; details: SMMC-7721, 48 h
SW480 [11] = test: Potency index, ratio of cisplatin IC50 to test compound IC50 for antiproliferative activity against human SW480 cells; assay type: functional
SW480 [12] = test: Antiproliferative activity against human SW480 cells incubated for 48 hrs by MTT assay; assay type: functional, cell-based; details: SW480, 48 h
SMMC-7721 [13] = test: Potency index, ratio of cisplatin IC50 to test compound IC50 for antiproliferative activity against human SMMC7721 cells; assay type: functional
HL-60 [14] = test: Potency index, ratio of cisplatin IC50 to test compound IC50 for antiproliferative activity against human HL-60 cells; assay type: functional
K562/VCR [15] = test: Potency index, ratio of etoposide IC50 to compound IC50 for antiproliferative activity against human K562/VCR cells; assay type: functional
K562/Adr [16] = test: Antiproliferative activity against human K562/ADR cells incubated for 72 hrs by CCK8 method; assay type: functional, cell-based
K562 [17] = test: Antiproliferative activity against human K562 cells incubated for 72 hrs by CCK8 method; assay type: functional, cell-based; details: K562, 72 h
K562/VCR [18] = test: Antiproliferative activity against human K562/VCR cells incubated for 72 hrs by CCK8 method; assay type: functional, cell-based
K562/VCR [19] = test: Potency index, ratio of vincristine IC50 to compound IC50 for antiproliferative activity against human K562/VCR cells; assay type: functional
BGC-823 [20] = test: Potency index, ratio of etoposide IC50 to test compound IC50 for antiproliferative activity against human BGC-823 cells; assay type: functional
K562/A02 [21] = test: Potency index, ratio of etoposide IC50 to test compound IC50 for antiproliferative activity against human K562/A02 cells; assay type: functional
HepG2 = test: Potency index, ratio of etoposide IC50 to test compound IC50 for antiproliferative activity against human HepG2 cells; assay type: functional
MGC-803 [22] = test: Potency index, ratio of etoposide IC50 to test compound IC50 for antiproliferative activity against human MGC-803 cells; assay type: functional
MCF7 [23] = test: Potency index, ratio of etoposide IC50 to test compound IC50 for antiproliferative activity against human MCF7 cells; assay type: functional
HeLa [24] = test: Potency index, ratio of etoposide IC50 to test compound IC50 for antiproliferative activity against human HeLa cells; assay type: functional
K562 [25] = test: Potency index, ratio of etoposide IC50 to test compound IC50 for antiproliferative activity against human K562 cells; assay type: functional
A549 [26] = test: Potency index, ratio of etoposide IC50 to test compound IC50 for antiproliferative activity against human A549 cells; assay type: functional
SK-OV-3 [27] = test: Potency index, ratio of etoposide IC50 to test compound IC50 for antiproliferative activity against human SK-OV-3 cells; assay type: functional
K562 [28] = test: Antiproliferative activity against human K562 cells incubated for 48 hrs by MTT assay; assay type: functional, cell-based; details: K562, 48 h
K562/Adr [29] = test: Potency index, ratio of etoposide IC50 to test compound IC50 for antiproliferative activity against human K562/ADM cells; assay type: functional
K562/Adr [30] = test: Antiproliferative activity against human K562/ADM cells incubated for 48 hrs by MTT assay; assay type: functional, cell-based
HeLa [31] = test: Antiproliferative activity against human HeLa cells incubated for 48 hrs by MTT assay; assay type: functional, cell-based

## COc1cc(C(=O)/C=C/c2ccc(F)cc2)ccc1OCc1cn([C@@H]2c3cc4c(cc3[C@@H](c3cc(OC)c(OC)c(OC)c3)[C@H]3C(=O)OC[C@@H]32)OCO4)nn1
MGC-803 [1]
  IC50: 0.53 µM
SK-OV-3 [2]
  IC50: 0.53 µM
BGC-823 [3]
  IC50: 0.53 µM
K562/A02 [4]
  IC50: 0.53 µM

## COc1cc([C@@H]2c3cc4c(cc3[C@@H](n3cc(COC[C@H]5O[C@@H](OCc6cn([C@@H]7c8cc9c(cc8[C@@H](c8cc(OC)c(O)c(OC)c8)[C@H]8C(=O)OC[C@@H]87)OCO9)nn6)[C@H](OC(C)=O)[C@@H](OC(C)=O)[C@@H]5OC(C)=O)nn3)[C@H]3COC(=O)[C@H]23)OCO4)cc(OC)c1O
HL-60 [5]
  IC50: 14 µM
A549 [6]
  IC50: 14 µM
MCF7 [7]
  Ratio IC50: 2.8
MCF7 [8]
  IC50: 14 µM
A549 [9]
  Ratio IC50: 2.8
SMMC-7721 [10]
  IC50: 14 µM
SW480 [11]
  Ratio IC50: 2.8
SW480 [12]
  IC50: 14 µM
SMMC-7721 [13]
  Ratio IC50: 2.8
HL-60 [14]
  Ratio IC50: 2.8

## COc1cc([C@@H]2c3cc4c(cc3[C@H](OC(=O)c3nn(Cc5cc(Cl)cc(Cl)c5)c5ccccc35)[C@H]3COC(=O)[C@H]23)OCO4)cc(OC)c1OC
K562/VCR [15]
  Ratio IC50: 8.1
K562/Adr [16]
  IC50: 0.56 µM
K562 [17]
  IC50: 0.423 µM
K562/VCR [18]
  IC50: 0.578 µM
K562/VCR [19]
  Ratio IC50: 8.1

## COc1cc([C@@H]2c3cc4c(cc3[C@@H](n3ccnc3)[C@H]3COC(=O)[C@H]23)OCO4)cc(OC)c1OC
BGC-823 [20]
  Ratio IC50: 5.8
K562/A02 [21]
  Ratio IC50: 5.8
HepG2
  Ratio IC50: 5.8
MGC-803 [22]
  Ratio IC50: 5.8
MCF7 [23]
  Ratio IC50: 5.8
HeLa [24]
  Ratio IC50: 5.8
K562 [25]
  Ratio IC50: 5.8
A549 [26]
  Ratio IC50: 5.8
SK-OV-3 [27]
  Ratio IC50: 5.8

## CCCC(=O)O[C@@H]1[C@@H](OC(=O)CCC)[C@H](OCc2cn([C@@H]3c4cc5c(cc4[C@@H](c4cc(OC)c(O)c(OC)c4)[C@H]4C(=O)OC[C@@H]43)OCO5)nn2)O[C@H](COCc2cn([C@@H]3c4cc5c(cc4[C@@H](c4cc(OC)c(O)c(OC)c4)[C@H]4C(=O)OC[C@@H]43)OCO5)nn2)[C@H]1OC(=O)CCC
HL-60 [5]
  IC50: 14 µM
A549 [6]
  IC50: 14 µM
MCF7 [7]
  Ratio IC50: 2.8
MCF7 [8]
  IC50: 14 µM
A549 [9]
  Ratio IC50: 2.8
SMMC-7721 [10]
  IC50: 14 µM
SW480 [11]
  Ratio IC50: 2.8
SW480 [12]
  IC50: 14 µM
SMMC-7721 [13]
  Ratio IC50: 2.8
HL-60 [14]
  Ratio IC50: 2.8

## COc1cc([C@@H]2c3cc4c(cc3[C@@H](n3cnc([N+](=O)[O-])c3)[C@H]3COC(=O)[C@H]23)OCO4)cc(OC)c1O
K562 [28]
  IC50: 4.16 µM
K562/Adr [29]
  Ratio IC50: 18.4
K562/Adr [30]
  IC50: 4.16 µM
HeLa [31]
  IC50: 8.12 µM
